The source of these data is patent publication US12156880B2, “Heterocyclic RIP1 kinase inhibitors” (Rigel Pharmaceuticals, Inc., priority 2021, dated 2024).

One assay concerns U937 cells. Description: U937 cell necroptosis assay (TNFa + zVAD, CellTiter-Glo recovery). Particulars: Homo sapiens, U-937, 18 h, TNFa 2 ng/mL + zVAD-fmk, read-out: U937 Zvad TNF CTG Recovery, U937, TNFa + zVAD (IC50). It is filed as cell-based. The procedure, abridged: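 Human U937 (50K/well, 60 uM zVAD-fmk medium, plated same day) or murine L929 (10K/well, plated 18 h, then 40 uM zVAD-fmk medium) were grown in RPMI with 10% FBS. Both were pretreated with compound for 1 h at 37 °C before TNFa at 2 ng/mL final. Viability was read by CellTiter-Glo luminescence after 18 h.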

A further assay concerns L929 cells. Description: L929 cell necroptosis assay (TNFa + zVAD, CellTiter-Glo recovery). In kind it is cell-based, murine. Particulars: Mus musculus, L929, 18 h, TNFa 2 ng/mL + zVAD-fmk, read-out: L929-CTG-recovery, L929, TNFa + zVAD (IC50). On the procedure:
In this example, U937 and L929 cells were exposed to compounds of the present disclosure and a cell necroptosis assay was conducted to evaluate the compounds' activity against human RIP1 and murine RIP1.
U937 and L929 cells were obtained from the American Type Culture Collection (Manassas, VA, USA). Both cells were maintained in logarithmic growth phase in complete RPMI 1640 media (Sigma, ST Louis, MO, USA) supplemented with 10% fetal bovine serum (Sigma, ST Louis, MO, USA) at 37° C. with 5% CO2. For necroptosis assay, L929 cells were plated for 18 h in 100 μL/well medium at 10K cells/well in Costar 96-well black clear-bottom plates (Fisher Scientific, Hampton, NH, USA); U937 cells were plated on the day of the assay in 50 μL/well medium containing 60 uM zVAD-fmk (Lonza, Basel, Switzerland) at 50K cells/well. Medium from L929 cells were removed from the 96-well plates and replaced with 50 μL/well new medium containing 40 uM zVAD-fmk. Each compound of the present disclosure evaluated in this example was serially diluted in DMSO from 2.5 mM in 4-fold dilutions, and then diluted 1:125 in complete medium. 50 μL/well 2× of the compound was then added to the cells in the plates. The cells were pre-incubated with the compound for 1 hour at 37° C. with 5% CO2 and before addition of 10 μL/well 11×TNFa (Peprotech, Rocky Hill, NJ, USA) to give a final concentration of 2 ng/mL for TNFa. The relative amount of necroptosis cells was determined by luminescent using a Wallac Victor2 Luminometer (PerkinElmer, Waltham, MA, USA) and a CellTiter-Glo® Luminescent Cell Viability Reagent Assay (Promega, Madison, WI, USA) added per manufacturer instructions after 18 hours of TNFa stimulation at 37° C. with 5% CO2. This example establishes that embodiments of the compounds described herein have unexpectedly potent activity against human RIP1 and murine RIP1, which allows their assessment in in vivo mouse models of disease.

The target of another assay is T1, RIPK1 (Homo sapiens, UniProt Q13546).
T1 sequence (Q13546 1-671): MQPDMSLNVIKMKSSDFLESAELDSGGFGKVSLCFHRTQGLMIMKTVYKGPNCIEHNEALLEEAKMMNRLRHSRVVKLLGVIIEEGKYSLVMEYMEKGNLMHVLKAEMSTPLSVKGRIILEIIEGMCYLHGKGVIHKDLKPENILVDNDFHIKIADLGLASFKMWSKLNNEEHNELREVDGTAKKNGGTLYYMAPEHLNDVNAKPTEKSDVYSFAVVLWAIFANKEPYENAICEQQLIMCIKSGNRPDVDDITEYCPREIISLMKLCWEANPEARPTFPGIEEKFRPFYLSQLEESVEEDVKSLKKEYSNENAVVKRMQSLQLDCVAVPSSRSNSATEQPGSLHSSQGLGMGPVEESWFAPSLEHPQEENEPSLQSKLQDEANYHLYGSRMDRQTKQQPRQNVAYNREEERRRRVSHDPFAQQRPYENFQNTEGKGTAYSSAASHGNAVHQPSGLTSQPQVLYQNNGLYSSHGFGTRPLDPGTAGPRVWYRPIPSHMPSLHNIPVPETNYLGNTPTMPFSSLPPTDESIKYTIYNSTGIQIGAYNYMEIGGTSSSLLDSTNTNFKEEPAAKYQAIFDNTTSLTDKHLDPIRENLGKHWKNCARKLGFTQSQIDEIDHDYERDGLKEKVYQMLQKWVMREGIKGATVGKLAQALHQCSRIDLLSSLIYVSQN
The experiment in a line: RIPK1 ADP-Glo biochemical kinase assay. Particulars: read-out: RIPK1 ADP-Glo Kinase (IC50). An outline of the steps:
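RIPK1 at 31 ng/well in Tris pH 7.4 buffer with MgCl2, BSA, DTT and MnCl2, reacted with compounds (duplicate) for 30 min at 30 °C. ADP formed detected by ADP-Glo: 40 min stop/depletion, then 30 min detection reagent at room temperature; luminescence read.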

On to `CN1C(=O)[C@@H](NC(=O)c2cc(Cc3cccc(F)n3)ccn2)COc2ccc(C#CC3COC3)cc21` [I-84, (S)-4-((6-fluoropyridin-2-yl)methyl)-N-(5-methyl-7-(oxetan-3-ylethynyl)-4-oxo-2,3,4,5-tetrahydrobenzo[b][1,4]oxazepin-3-yl)picolinamide], for which the IC50 worked out at 9.4 nM in the assay on U937 cells, 768 nM in the assay with L929 cells and 19.3 nM at RIPK1.
The corresponding values for `Cc1nc(Cc2ccnc(C(=O)N[C@H]3COc4ccc(C#CC(C)(C)C)cc4N(C)C3=O)c2)cs1` [I-96, (S)—N-(7-(3,3-dimethylbut-1-yn-1-yl)-5-methyl-4-oxo-2,3,4,5-tetrahydrobenzo[b][1,4]oxazepin-3-yl)-4-((2-methylthiazol-4-yl)methyl)picolinamide] are 84.2 nM, 242 nM and 396 nM.
The corresponding values for `Cc1cccc(Cc2cnn(C(=O)N[C@H]3CCc4ccc(Br)cc4N(C)C3=O)c2)n1` [I-118, (S)—N-(8-Bromo-1-methyl-2-oxo-2,3,4,5-tetrahydro-1H-benzo[b]azepin-3-yl)-4-((6-methylpyridin-2-yl)methyl)-1H-pyrazole-1-carboxamide] are 256 nM, 7670 nM and 38.4 nM.
Taken in the same sequence, the figures for `CN1C(=O)[C@@H](NC(=O)n2cc(Cc3cccnc3F)cn2)COc2ccc(C#CC(C)(C)CO)cc21` [I-46, (S)-4-((2-Fluoropyridin-3-yl)methyl)-N-(7-(4-hydroxy-3,3-dimethylbut-1-yn-1-yl)-5-methyl-4-oxo-2,3,4,5-tetrahydrobenzo[b][1,4]oxazepin-3-yl)-1H-pyrazole-1-carboxamide] were 9.7 nM, 2370 nM and 37.5 nM.
Take `CN1C(=O)[C@@H](NC(=O)c2cc(Cc3cccnc3F)ccn2)COc2ccc(C#CC3CCOCC3)cc21` [I-51, (S)-4-((2-fluoropyridin-3-yl)methyl)-N-(5-methyl-4-oxo-7-((tetrahydro-2H-pyran-4-yl)ethynyl)-2,3,4,5-tetrahydrobenzo[b][1,4]oxazepin-3-yl)picolinamide]: the IC50 in the assay on U937 cells was determined as 0.4 nM; with L929 cells, 9.6 nM; at RIPK1, 18.3 nM.
The corresponding values for `CN1C(=O)[C@@H](NC(=O)n2cc(Cc3cccnc3F)cn2)COc2ccc(C#CC3(O)CCOCC3)cc21` [I-44, (S)-4-((2-Fluoropyridin-3-yl)methyl)-N-(7-((4-hydroxytetrahydro-2H-pyran-4-yl)ethynyl)-5-methyl-4-oxo-2,3,4,5-tetrahydrobenzo[b][1,4]oxazepin-3-yl)-1H-pyrazole-1-carboxamide] are 18 nM, 4120 nM and 62.9 nM.
Taken in the same sequence, the figures for `Cc1ccc(Oc2ccnc(C(=O)N[C@H]3COc4ccc(C#CC(C)(C)O)cc4N(C)C3=O)c2)c(C)n1` [I-78, (S)-4-((2,6-dimethylpyridin-3-yl)oxy)-N-(7-(3-hydroxy-3-methylbut-1-yn-1-yl)-5-methyl-4-oxo-2,3,4,5-tetrahydrobenzo[b][1,4]oxazepin-3-yl)picolinamide] were 462 nM, 6780 nM and 36.1 nM.
On to `CN1C(=O)[C@@H](NC(=O)c2cc(Oc3cccnc3)ccn2)COc2ccc(C#CC3(O)COC3)cc21` [I-57, (S)—N-(7-((3-hydroxyoxetan-3-yl)ethynyl)-5-methyl-4-oxo-2,3,4,5-tetrahydrobenzo[b][1,4]oxazepin-3-yl)-4-(pyridin-3-yloxy)picolinamide], for which the IC50 stood at 1.6 nM in the assay with U937 cells, 437 nM with L929 cells and 18.1 nM at RIPK1.
The corresponding values for `CN1C(=O)[C@@H](NC(=O)n2cc(Cc3cccc(F)n3)cn2)CCc2ccc(C#CC(C)(C)CO)cc21` [I-115, (S)-4-((6-fluoropyridin-2-yl)methyl)-N-(8-(4-hydroxy-3,3-dimethylbut-1-yn-1-yl)-1-methyl-2-oxo-2,3,4,5-tetrahydro-1H-benzo[b]azepin-3-yl)-1H-pyrazole-1-carboxamide] are 0.5 nM, 38.5 nM and 28.3 nM.
The corresponding values for `CN1C(=O)[C@@H](NC(=O)n2cc(Cc3ccncc3)cn2)COc2ccc(C#CC(C)(C)O)cc21` [I-29, (S)—N-(7-(3-Hydroxy-3-methylbut-1-yn-1-yl)-5-methyl-4-oxo-2,3,4,5-tetrahydrobenzo[b][1,4]oxazepin-3-yl)-4-(pyridin-4-ylmethyl)-1H-pyrazole-1-carboxamide] are 47.2 nM, 1720 nM and 69.4 nM.
Take `CN1C(=O)[C@@H](NC(=O)n2cc(Cc3cccc(F)n3)cn2)CCc2ccc(Br)cc21` [I-35, (S)—N-(8-Bromo-1-methyl-2-oxo-2,3,4,5-tetrahydro-1H-benzo[b]azepin-3-yl)-4-((6-fluoropyridin-2-yl)methyl)-1H-pyrazole-1-carboxamide]: the IC50 in the assay on U937 cells turned out to be 70 nM; in the assay with L929 cells it was 6860 nM; at RIPK1 it was 19.4 nM.
The corresponding values for `CN1C(=O)[C@@H](NC(=O)c2cc(Oc3cncc(F)c3)ccn2)COc2ccc(C#CC3(O)COC3)cc21` [I-59, (S)-4-((5-fluoropyridin-3-yl)oxy)-N-(7-((3-hydroxyoxetan-3-yl)ethynyl)-5-methyl-4-oxo-2,3,4,5-tetrahydrobenzo[b][1,4]oxazepin-3-yl)picolinamide] are 3.5 nM, 382 nM and 15.9 nM.
The corresponding values for `CN1C(=O)[C@@H](NC(=O)n2cc(Cc3cccc(F)n3)cn2)COc2ccc(C#CC(C)(C)O)cc21` [I-1, (S)-4-((6-Fluoropyridin-2-yl)methyl)-N-(7-(3-hydroxy-3-methylbut-1-yn-1-yl)-5-methyl-4-oxo-2,3,4,5-tetrahydrobenzo[b][1,4]oxazepin-3-yl)-1H-pyrazole-1-carboxamide] are 11.4 nM, 2300 nM and 20.6 nM.
In the case of `Cc1ncccc1Oc1ccnc(C(=O)N[C@H]2COc3ccc(C#CC4(O)COC4)cc3N(C)C2=O)c1` [I-75, (S)—N-(7-((3-hydroxyoxetan-3-yl)ethynyl)-5-methyl-4-oxo-2,3,4,5-tetrahydrobenzo[b][1,4]oxazepin-3-yl)-4-((2-methylpyridin-3-yl)oxy)picolinamide], the values for the IC50 in the assay with U937 cells, in the assay on L929 cells and at RIPK1 were 34.3 nM, 1870 nM and 10.4 nM, respectively.
The corresponding values for `CN1C(=O)[C@@H](NC(=O)c2cc(Cc3cscn3)ccn2)COc2ccc(C#CC3(O)COC3)cc21` [I-76, (S)—N-(7-((3-hydroxyoxetan-3-yl)ethynyl)-5-methyl-4-oxo-2,3,4,5-tetrahydrobenzo[b][1,4]oxazepin-3-yl)-4-(thiazol-4-ylmethyl)picolinamide] are 24.7 nM, 538 nM and 12.8 nM.
